Drawing on patent publication US20260200928A1, “THERAPEUTIC COMPOUNDS” (Sanofi, priority 2022, published 2026), this text covers IC50 for 22 compounds.

Structures are written as SMILES.

The experiment has as its target T1, human IL-17A (Homo sapiens, UniProt Q16552).
T1 construct: purchased R&D Systems 7955-IL/CF
T1 sequence (Q16552 24-155): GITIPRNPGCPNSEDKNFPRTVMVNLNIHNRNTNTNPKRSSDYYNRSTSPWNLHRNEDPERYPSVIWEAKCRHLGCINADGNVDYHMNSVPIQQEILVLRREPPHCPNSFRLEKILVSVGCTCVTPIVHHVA
As to the kind of experiment: IL-17A AlphaLISA competition assay (block of IL-17A binding to its receptor IL-17RA). As to conditions: mean IC50 (n≥2), block of IL-17A binding to IL-17RA. The protocol: The ability of the compounds to block binding of IL-17A to its receptor, IL-17RA, was analysed in a competition assay using AlphaLISA technology (Perkin Elmer). The assay is a bead based AlphaLISA where the IL-17RA is captured on the acceptor bead via an Fc tag and IL-17A is captured on the streptavidin donor bead via a biotinylated anti-IL17A antibody.
Assay buffer was prepared by adding 0.05% Tween-20 (v/v) and 0.1% BSA to Phosphate Buffered Saline (PBS). The assay was carried out in 384-well white low volume plates (Perkin Elmer #6008359). 10 μL of a 7.5 nM stock of human recombinant IL-17A (R&D Systems 7955-IL/CF) diluted in assay buffer was dispensed into the assay plate and compounds or DMSO vehicle control were added in a volume of 75 nL using an acoustic dispenser (Beckman). The compounds were pre-incubated with the IL-17A for 30 min at room temperature prior to addition of 5 μL of a 5 nM stock of human recombinant IL-17RA/Fc chimera (R&D Systems 177-IR-100) diluted in assay buffer. The IL-17A was incubated with the receptor for a further 90 minutes at room temperature before addition of 5 μL of a mixture of anti-human Fc IgG acceptor beads (75 μg/mL, Perkin Elmer AL1030) and anti-IL-17A biotin conjugated antibody (5 nM, Abcam, #ab155575) in assay buffer. After a further 30 min incubation at room temperature, 5 μL of streptavidin donor beads (75 μg/mL, Perkin Elmer 6760002S) were added and the plate was incubated for 3 h in the dark.
The AlphaLisa signal was measured using the PheraSTAR plate reader (BMG). Data were analysed using GeneData Screener and fitted to a 4-parameter logistic equation. The IC50 values were calculated using the DMSO vehicle as the negative control and a high concentration (4 μM) of a reference IL-17A inhibitor as the positive control. All compounds were analysed at least in duplicate (n≥2).
For orientation: Bead proximity is the source of the signal in Alpha formats.
The IC50 is the concentration at which inhibition is half-maximal. The compound `O=C(NCc1ccccc1)N[C@H](C(=O)Nc1cc(CN2C[C@@H](C(F)(F)F)NC2=O)ccn1)C1CCC(F)(F)CC1` [Example 99, (S)-2-(3-Benzylureido)-2-(4,4-difluorocyclohexyl)-N-(4-(((S)-2-oxo-4-(trifluoromethyl)imidazolidin-1-yl)methyl)pyridin-2-yl)acetamide] displayed an IC50 of 6790 nM. `COC[C@H](c1ccnc(NC(=O)[C@@H](NC(=O)c2ccnn2C)C2CCC(C(F)(F)F)CC2)c1)N1C[C@@H](C(F)(F)F)NC1=O` (stereo partly drawn) [Example 302, N-((1S)-2-((4-((S)-2-methoxy-1-((S)-2-oxo-4-(trifluoromethyl)imidazolidin-1-yl)ethyl)pyridin-2-yl)amino)-2-oxo-1-(4-(trifluoromethyl)-cyclohexyl)ethyl)-1-methyl-1H-pyrazole-5-carboxamide] registered an IC50 of 44 nM. For `Cn1nccc1C(=O)NC(C(=O)Nc1cc(Cc2ccn(C)c(=O)c2)ccn1)C1CCC(F)(F)CC1` (stereo not shown) [Example 54, N-(1-(4,4-difluorocyclohexyl)-2-((4-((1-methyl-2-oxo-1,2-dihydro-pyridin-4-yl)methyl)pyridin-2-yl)amino)-2-oxoethyl)-1-methyl-1H-pyrazole-5-carboxamide], the IC50 was 4760 nM. This IC50 lies about 110-fold higher than the previous one. Turning to `COC[C@H](c1ccnc(NC(=O)[C@@H](NC(=O)c2nocc2OCC(F)F)C2CCC(F)(F)CC2)c1)N1C[C@@H](C(F)(F)F)NC1=O` [Example 192, N-((S)-1-(4,4-difluorocyclohexyl)-2-((4-((S)-2-methoxy-1-((S)-2-oxo-4-(trifluoromethyl)imidazolidin-1-yl)ethyl)pyridin-2-yl)amino)-2-oxoethyl)-4-(2,2-difluoroethoxy)isoxazole-3-carboxamide], the half-inhibitory concentration (IC50) was 105 nM. `COC[C@H](c1ccnc(NC(=O)[C@@H](NC(=O)c2nocc2C2CCC2)C2CCC(F)(F)CC2)c1)N1C[C@@H](C(F)(F)F)NC1=O` [Example 191, 4-cyclobutyl-N-((S)-1-(4,4-difluorocyclohexyl)-2-((4-((S)-2-methoxy-1-((S)-2-oxo-4-(trifluoromethyl)imidazolidin-1-yl)ethyl)pyridin-2-yl)amino)-2-oxoethyl)isoxazole-3-carboxamide] registered an IC50 of 31 nM. This IC50 lies about 3.4-fold lower than the previous one. In the case of `CCc1nocc1C(=O)N[C@@H](COC(C)(C)C(F)(F)F)C(=O)Nc1cc([C@@H](COC)N2C[C@@H](C(F)(F)F)NC2=O)ccn1` [Example 267, 3-ethyl-N-((S)-1-((4-((S)-2-methoxy-1-((S)-2-oxo-4-(trifluoromethyl)imidazolidin-1-yl)ethyl)pyridin-2-yl)amino)-1-oxo-3-((1,1,1-trifluoro-2-methylpropan-2-yl)oxy)propan-2-yl)isoxazole-4-carboxamide], the concentration for half-maximal inhibition (IC50) is 27 nM. As for `Cn1nccc1C(=O)N[C@H](C(=O)Nc1cc(CN2C[C@@H](C(F)(F)F)NC2=O)ccn1)C1CCC(F)(F)CC1` [Example 9, N-((S)-1-(4,4-difluorocyclohexyl)-2-oxo-2-((4-(((S)-2-oxo-4-(trifluoromethyl)imidazolidin-1-yl)methyl)pyridin-2-yl)amino)ethyl)-1-methyl-1H-pyrazole-5-carboxamide], the half-inhibitory concentration (IC50) stood at 422 nM.

Compound `CC[C@H](c1ccnc(NC(=O)[C@@H](NC(=O)c2ccnn2C(C)C)C2CCC(F)(F)CC2)c1)N1C[C@@H](C(F)(F)F)NC1=O` [Example 215, N-((S)-1-(4,4-difluorocyclohexyl)-2-oxo-2-((4-((R)-1-((S)-2-oxo-4-(trifluoromethyl)imidazolidin-1-yl)propyl)pyridin-2-yl)amino)ethyl)-1-isopropyl-1H-pyrazole-5-carboxamide] displayed an IC50 of 65 nM. For the compound `COCC(c1ccnc(NC(=O)[C@@H](NC(=O)c2ocnc2C)[C@H]2CC[C@H](C)CC2)c1)N1C[C@@H](C(F)(F)F)NC1=O` (single isomer, unassigned) [Example 122], the concentration for half-maximal inhibition (IC50) is 82 nM. The compound `CCc1nonc1C(=O)N[C@H](C(=O)Nc1cc([C@@H](CC)N2C[C@@H](C(F)(F)F)NC2=O)ccn1)C1CCC(F)(F)CC1` [Example 209, N-((S)-1-(4,4-difluorocyclohexyl)-2-oxo-2-((4-((R)-1-((S)-2-oxo-4-(trifluoromethyl)imidazolidin-1-yl)propyl)pyridin-2-yl)amino)ethyl)-4-ethyl-1,2,5-oxadiazole-3-carboxamide] showed an IC50 of 23 nM.

In the case of `COCC(c1ccnc(NC(=O)[C@@H](NC(=O)c2ccnn2C(C)C)[C@H]2CC[C@H](C)CC2)c1)N1C[C@@H](C(F)(F)F)NC1=O` (single isomer, unassigned) [Example 78], the half-maximal inhibitory concentration (IC50) came out at 69 nM. Regarding `Cn1nccc1C(=O)N[C@H](C(=O)Nc1cc(C(NC(=O)CCC(F)(F)F)C2CC2)ccn1)C(C1CC1)C1CC1` (single isomer, unassigned) [Example 42], the IC50 was determined as 524 nM. Regarding `CC1(C)CN(Cc2ccnc(NC(=O)[C@@H](NC(=O)c3nonc3C3CC3)[C@H]3CC[C@H](C)CC3)c2)C(=O)N1` [Example 25, 4-Cyclopropyl-N—((S)-2-((4-((4,4-dimethyl-2-oxoimidazolidin-1-yl)methyl)pyridin-2-yl)amino)-1-((1r,4S)-4-methylcyclohexyl)-2-oxoethyl)-1,2,5-oxadiazole-3-carboxamide], the half-inhibitory concentration (IC50) is 105 nM. In turn, `CC(C)(C)OC(=O)N[C@H](C(=O)Nc1cc(C(NC(=O)CCC(F)(F)F)C2CC2)ccn1)C1CCC(F)(F)CC1` (single isomer, unassigned) [Example 74] gave an IC50 of 2620 nM. For `O=C(CCC(F)(F)F)NC(c1ccnc(NC(=O)[C@@H](NC(=O)c2nonc2C2CC2)C2CCC(F)(F)CC2)c1)C1CC1` (stereo partly drawn) [Example 96, 4-Cyclopropyl-N-((1S)-2-((4-(cyclopropyl(4,4,4-trifluorobutanamido)-methyl)pyridin-2-yl)amino)-1-(4,4-difluorocyclohexyl)-2-oxoethyl)-1,2,5-oxadiazole-3-carboxamide], the IC50 was 96 nM.

`CC1CCC(C(NC(=O)c2ccnn2C)C(=O)Nc2cc(C(C)N3CC(C(F)(F)F)NC3=O)ccn2)CC1` [Example 240, 1-methyl-N-((S)-1-((1r,4S)-4-methylcyclohexyl)-2-oxo-2-((4-((R)-1-((S)-2-oxo-4-(trifluoromethyl)imidazolidin-1-yl)ethyl)pyridin-2-yl)amino)ethyl)-1H-pyrazole-5-carboxamide]: the IC50 stood at 16 nM. For `Cn1nccc1C(=O)NC(C(=O)Nc1cc(C(NC(=O)CCC(F)(F)F)C2CC2)ccn1)C1CCC(F)(F)CC1` (stereo not shown) [Example 47, N-(2-((4-(cyclopropyl(4,4,4-trifluorobutanamido)methyl)pyridin-2-yl)amino)-1-(4,4-difluorocyclohexyl)-2-oxoethyl)-1-methyl-1H-pyrazole-5-carboxamide], the IC50 amounted to 630 nM.

For the compound `Cn1ccnc1C(=O)N[C@H](C(=O)Nc1cc(C(NC(=O)CCC(F)(F)F)C2CC2)ccn1)C1CCC(F)(F)CC1` (stereo partly drawn) [Example 111, N-((1S)-2-((4-(cyclopropyl(4,4,4-trifluorobutanamido)methyl)pyridin-2-yl)amino)-1-(4,4-difluorocyclohexyl)-2-oxoethyl)-1-methyl-1H-imidazole-2-carboxamide], the 50% inhibitory concentration (IC50) came out at 6170 nM.

`CCc1nocc1C(=O)N[C@H](C(=O)Nc1cc([C@@H](COC)N2C[C@@H](C(F)(F)F)NC2=O)ccn1)C1CCC(C(F)(F)F)CC1` (stereo partly drawn) [Example 300, 3-ethyl-N-((1S)-2-((4-((S)-2-methoxy-1-((S)-2-oxo-4-(trifluoromethyl)-imidazolidin-1-yl)ethyl)pyridin-2-yl)amino)-2-oxo-1-(4-(trifluoromethyl)-cyclohexyl)ethyl)isoxazole-4-carboxamide] gave a half-inhibitory concentration (IC50) of 39 nM.

In turn, `CC(C)(C)OC(=O)N[C@H](C(=O)Nc1cc(COC(=O)NCC(F)(F)F)ccn1)[C@H]1CC[C@H](C)CC1` [Example 26, Tert-butyl ((S)-1-((1r,4S)-4-methylcyclohexyl)-2-oxo-2-((4-((((2,2,2-trifluoroethyl)carbamoyl)oxy)methyl)pyridin-2-yl)amino)ethyl)carbamate] displayed an IC50 of 10400 nM.

In turn, `COCC(c1ccnc(NC(=O)C(NC(=O)C(F)(F)c2cccc(Cl)c2)C2CCC(C)CC2)c1)N1CC(C(F)(F)F)NC1=O` (single isomer, unassigned) [Example 249] came in with a concentration for half-maximal inhibition (IC50) of 49 nM.

The compound `CC(C)(C)OC(=O)N1CCn2c(ccc2C(=O)N[C@H](C(=O)Nc2cc(CN3C[C@@H](C(F)(F)F)NC3=O)ccn2)C2CCC(F)(F)CC2)C1` [Example 11, Tert-butyl 6-(((S)-1-(4,4-difluorocyclohexyl)-2-oxo-2-((4-(((S)-2-oxo-4-(trifluoromethyl)imidazolidin-1-yl)methyl)pyridin-2-yl)amino)ethyl)carbamoyl)-3,4-dihydropyrrolo[1,2-a]pyrazine-2(1H)-carboxylate] displayed a half-inhibitory concentration (IC50) of 359 nM.
